According to US20250207131A1, “MODIFIED RNA AGENTS WITH REDUCED OFF-TARGET EFFECT” (Alnylam Pharmaceuticals, Inc., priority 2018, published 2025):

Tests used:
[1] = Temperature-dependent UV spectroscopy, Tm of modified siRNA duplexes; format: physicochemical; conditions: 1 μM duplex, 0.25x PBS
Description: Temperature-dependent UV Spectroscopy: The melting studies were performed at a duplex concentration of 1 μM (consisting of the modified antisense […]) in 1 cm path length quartz cells on a Cary 300 spectrophotometer equipped with a thermoprogrammer. Each cuvette contained 800 μL of sample solution covered by 200 μL of light mineral oil. Melting curves were monitored at 260 nm with a heating rate of 1° C./min from 15-90° C. Melting temperatures (Tm) were calculated from the first derivatives of the smoothed heating curves and the reported values are the result of at least two independent measurements.

[2] = test system: luciferase reporter plasmids (psiCHECK2, Renilla luciferase fused to target sequence); test: Off-target Dual-Glo luciferase reporter assay in COS-7 cells; format: cell-based
Description: Dual-Glo® Luciferase assay: Cos7 cells (ATCC, Manassas, VA) were grown to near confluence at 37° C. in an atmosphere of 5% CO2 in DMEM (ATCC) supplemented with 10% FBS, before being released from the plate by trypsinization. siRNA and psiCHCECK2 plasmid transfection was carried out by adding 5 μL of siRNA duplexes and 5 μL of psiCHECK2 plasmid per well along with 5 μL of Opti-MEM plus 0.1 μL of Lipofectamine 2000 per well (Invitrogen, Carlsbad CA. cat #13778-150) and then incubated at room temperature for 15 minutes. The mixture was then added to the cells which were re-suspended in 35 ul of fresh complete media. The transfected cells were incubated at 37° C. in an atmosphere of 5% CO2.
48 hours after the siRNAs and psiCHECK2 plasmid were transfected; Firefly (transfection control) and Renilla (fused to target sequence) luciferase were measured. First, media was removed from cells. Then Firefly luciferase activity was measured by adding 20 μL of Dual-Glo® Luciferase Reagent equal to the culture medium volume to each well and mix. The mixture was incubated at room temperature for 30 minutes before luminescence (500 nm) was measured on a Spectramax (Molecular Devices) to detect the Firefly luciferase signal. Renilla luciferase activity was measured by adding 20 μL of room temperature of Dual-Glo® Stop & Glo® Reagent was added to each well and the plates were incubated for 10-15 minutes before luminescence was again measured to determine the Renilla luciferase signal. The Dual-Glo® Stop & Glo® Reagent, quenches the firefly luciferase signal and sustained luminescence for the Renilla luciferase reaction. siRNA activity was determined by normalizing the Renilla signal to the Firefly (control) signal within each well. The magnitude of siRNA activity was then assessed relative to cells that were transfected with the same vector but were not treated with siRNA or were treated with a non-targeting siRNA. All transfections were done at n=2 or greater.

TTR [3] = test: Mouse pharmacodynamic study, circulating TTR protein; format: in vivo; parameters: key: fraction of vehicle-control group mean serum TTR protein; conditions: mice, single dose 1 mg/kg, circulation, Day 7
Description: In mouse pharmacodynamic studies, female C57BL/6 mice (Charles River Laboratories) were administered a single dose of a vehicle control (1×PBS or 0.9% sodium chloride) or siRNA subcutaneously in the upper back. Bleeds were collected by retro-orbital bleeding. Serum were separated by centrifuging at 13000 rpm at room temperature for 10 mins. Mouse livers were collected and immediately snap frozen in liquid nitrogen, and stored at −80° C. for mRNA and siRNA analysis.
Mouse TTR Serum Protein Methods:_TTR serum protein was quantified using a commercially available enzyme-linked immunosorbent assay, 41-ALBMS-E01 (ALPCO, Salem, NH), according to manufacturer's instructions. Briefly, serum samples were diluted 4000 fold in 1× ALPCO Kit Dilution Buffer. An 8-point mouse TTR standard curve was generated using 2.5× serial dilutions, ranging from 0 to 1000 ng/mL. Standards and samples (100 uL) were added to the plate and allowed to incubate for 30 minutes at room temperature. […] After a wash in ALPCO Kit 1× Wash Buffer, plates were incubated for 10 minutes at room temperature in the dark with 3,3′,5,5′-tetramethybenzidine (TMB) and hydrogen peroxide in citric acid buffer at pH 3.3. Reactions were quenched with 100 μL of […] sulfuric acid per well. Absorbance at […] was read on a SpectraMax plate reader, and data were fit to a 4-parameter curve (y=(A−D)/(1+(x/C)^B)+D) as calculated in Softmax Pro Software to determine serum TTR protein levels expressed in ug/mL. Protein levels at each time point were normalized to the respective group average of vehicle control serum protein values.

TTR [4] = test: In vitro on-target activity, primary mouse hepatocytes, free uptake (TTR siRNAs); format: cell-based; conditions: 1 nM, log2 transformed, relative to the parent
[5] = antisense Position 5, Seq 3 (TTR)
[6] = antisense Position 7, Seq 3 (TTR)
[7] = antisense Position 7, Seq 4 (TTR)
[8] = TTR-3, antisense strand modified at position 5, luciferase reporter, COS-7 cells
[9] = TTR-3, antisense strand modified at position 7, luciferase reporter, COS-7 cells
[10] = TTR-4, modification at antisense position 7, luciferase reporter plasmids co-transfected with siRNAs into COS-7 cells

Substance | Thermal melting temperature (Tm) [1, 5] | Thermal melting temperature (Tm) [1, 6] | Thermal melting temperature (Tm) [1, 7] | IC50 [2, 8] | IC50 [2, 9] | IC50 [2, 10] | On-target FU (TTR [4]; [5]) | On-target FU (TTR [4]; [6]) | On-target FU (TTR [4]; [7]) | On-target, level of protein remaining with respect to PBS control (TTR [3]; [6]) | On-target, level of protein remaining with respect to PBS control (TTR [3]; [7])
3′-(R)-Me-UNA [Mod 6 (R)] | 84.1 °C | 81.2 °C | 82.0 °C | > 50 nM | > 50 nM | 2.86 nM | −0.78 | −0.32 | 0.36 | 0.20 | 0.29
3′-(S)-Me-UNA [Mod 6 (S)] | 84.0 °C | 81.1 °C | 82.0 °C | > 50 nM | > 50 nM | 3.65 nM | −0.38 | −0.53 | −0.09 | 0.20 | 0.23
5′-(R)-Me-UNA [Mod 5 (R)] | 84.2 °C | 80.3 °C | 82.0 °C | > 50 nM | > 50 nM | 8.13 nM | −0.16 | −0.03 | −0.33 | 0.17 | 0.16
5′-(S)-Me-UNA [Mod 5 (S)] | 84.2 °C | 80.3 °C | 82.0 °C | > 50 nM | > 50 nM | 8.73 nM | −0.87 | −1.20 | 0.22 | 0.17 | 0.16

Second part, led by results:

Thermal melting temperature (Tm) [1, 5] | Thermal melting temperature (Tm) [1, 6] | Thermal melting temperature (Tm) [1, 7] | IC50 [2, 8] | IC50 [2, 9] | IC50 [2, 10] | On-target FU (TTR [4]; [5]) | On-target FU (TTR [4]; [6]) | On-target FU (TTR [4]; [7]) | Substance | On-target, level of protein remaining with respect to PBS control (TTR [3]; [6]) | On-target, level of protein remaining with respect to PBS control (TTR [3]; [7])
84.0 °C | 80.0 °C | 82.1 °C | > 50 nM | > 50 nM | 1.61 nM | 0.02 | −0.35 | −0.24 | 2′-(R)-Me-UNA [Mod 7 (R)] | 0.18 | 0.14
84.3 °C | 80.0 °C | 83.0 °C | > 50 nM | > 50 nM | 1.35 nM | −0.10 | −0.02 | −0.14 | 2′-(S)-Me-UNA [Mod 7 (S)] | 0.15 | 0.20
